Experiments:
[1] = molecular target: SRSF protein kinase 3 (Homo sapiens) (UniProt Q9UPE1); test: Selectivity interaction (Ambit KINOMEscan and KiNATiv profiling in Jurkat cells) EUB0000090b SRPK3; format: cell-based; conditions: at 1 µM
[2] = molecular target: Protein kinase C eta type (Homo sapiens) (UniProt P24723); test: Selectivity interaction (KinomeScan (DiscoverX)) EUB0000695a PRKCH; conditions: at 100 nM
[3] = molecular target: Substance-K receptor (Homo sapiens) (UniProt P21452); test: Selectivity interaction (Eurofins CEREP Diversity Profile (receptors and ion channels)) EUB0000279b TACR2; conditions: at 10 µM
[4] = molecular target: T1, Rhodopsin kinase GRK1 (Homo sapiens) (UniProt Q15835); test: Selectivity interaction (KinomeScan (DiscoverX)) EUB0000229b GRK1; conditions: at 10 µM
T1 sequence (whole entry): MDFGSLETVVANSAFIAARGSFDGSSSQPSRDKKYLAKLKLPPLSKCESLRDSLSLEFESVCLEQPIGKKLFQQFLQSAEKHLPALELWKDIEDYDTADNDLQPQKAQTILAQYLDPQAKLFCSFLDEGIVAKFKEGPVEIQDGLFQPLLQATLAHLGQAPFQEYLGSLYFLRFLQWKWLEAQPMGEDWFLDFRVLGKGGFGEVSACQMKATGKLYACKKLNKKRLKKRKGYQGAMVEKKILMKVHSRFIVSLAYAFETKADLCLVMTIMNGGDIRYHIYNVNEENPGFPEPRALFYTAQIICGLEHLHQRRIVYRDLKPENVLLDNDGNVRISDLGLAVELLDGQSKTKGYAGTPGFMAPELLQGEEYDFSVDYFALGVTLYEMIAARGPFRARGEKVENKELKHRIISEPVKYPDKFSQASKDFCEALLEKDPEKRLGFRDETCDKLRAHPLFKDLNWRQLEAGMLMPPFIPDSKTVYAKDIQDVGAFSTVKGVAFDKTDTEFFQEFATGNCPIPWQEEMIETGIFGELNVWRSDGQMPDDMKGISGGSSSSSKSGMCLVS

[5] = molecular target: T2, Serine/threonine-protein kinase BRSK2 (Homo sapiens) (UniProt Q8IWQ3); test: Selectivity interaction (KinomeScan (DiscoverX)) EUB0001079a BRSK2; conditions: at 1 µM
T2 sequence (whole entry): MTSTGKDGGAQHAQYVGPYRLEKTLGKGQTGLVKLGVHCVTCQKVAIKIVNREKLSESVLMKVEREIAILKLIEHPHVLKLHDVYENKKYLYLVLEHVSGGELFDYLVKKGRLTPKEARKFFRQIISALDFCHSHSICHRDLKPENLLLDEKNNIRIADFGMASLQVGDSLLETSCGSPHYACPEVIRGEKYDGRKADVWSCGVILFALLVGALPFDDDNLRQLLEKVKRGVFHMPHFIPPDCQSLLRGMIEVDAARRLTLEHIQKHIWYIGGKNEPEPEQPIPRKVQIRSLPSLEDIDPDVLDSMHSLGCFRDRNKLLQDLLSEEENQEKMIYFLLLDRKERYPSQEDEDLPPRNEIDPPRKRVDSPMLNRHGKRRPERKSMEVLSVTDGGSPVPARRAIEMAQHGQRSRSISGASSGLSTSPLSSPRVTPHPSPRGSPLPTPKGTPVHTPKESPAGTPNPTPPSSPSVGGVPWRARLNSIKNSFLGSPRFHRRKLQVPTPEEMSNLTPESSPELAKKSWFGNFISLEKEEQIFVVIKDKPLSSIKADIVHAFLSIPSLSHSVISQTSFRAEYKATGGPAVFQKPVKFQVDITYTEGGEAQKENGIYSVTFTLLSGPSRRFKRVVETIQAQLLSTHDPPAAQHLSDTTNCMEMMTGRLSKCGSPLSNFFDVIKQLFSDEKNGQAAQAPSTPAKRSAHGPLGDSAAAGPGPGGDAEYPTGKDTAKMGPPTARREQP

[6] = molecular target: Histone acetyltransferase KAT2A (Homo sapiens) (UniProt Q92830); test: Selectivity interaction (Human bromodomain panel (DSF assay)) EUB0000233b KAT2A
[7] = tested on: Mast/stem cell growth factor receptor Kit (Homo sapiens), P10721 [A829P]; test: (§1) Selectivity interaction (KinomeScan (DiscoverX)) EUB0000655a KIT; conditions: at 10 µM
[8] = tested on: Mast/stem cell growth factor receptor Kit (Homo sapiens), P10721 [D816H]; test: as §1; conditions: at 10 µM
[9] = tested on: Mast/stem cell growth factor receptor Kit (Homo sapiens), P10721 [D816V]; test: as §1; conditions: at 10 µM
[10] = tested on: Mast/stem cell growth factor receptor Kit (Homo sapiens), P10721 [L576P]; test: as §1; conditions: at 10 µM
[11] = tested on: Mast/stem cell growth factor receptor Kit (Homo sapiens), P10721 [V559D,T670I]; test: as §1; conditions: at 10 µM
[12] = tested on: Mast/stem cell growth factor receptor Kit (Homo sapiens), P10721 [V559D,V654A]; test: as §1; conditions: at 10 µM
[13] = tested on: Mast/stem cell growth factor receptor Kit (Homo sapiens), P10721 [V559D]; test: as §1; conditions: at 10 µM
[14] = molecular target: Mast/stem cell growth factor receptor Kit (Homo sapiens, UniProt P10721); test: as §1; conditions: at 10 µM
[15] = molecular target: Ephrin type-A receptor 2 (Homo sapiens) (UniProt P29317); test: Selectivity interaction (KinomeScan (DiscoverX)) EUB0000618a EPHA2; conditions: at 10 µM
[16] = molecular target: Death-associated protein kinase 2 (Homo sapiens) (UniProt Q9UIK4); test: Selectivity interaction (KinomeScan (DiscoverX)) EUB0000607a DAPK2; conditions: at 10 µM

Chain of Mast/stem cell growth factor receptor Kit (Homo sapiens), P10721 [V559D,V654A] (P10721 whole entry V559D/V654A): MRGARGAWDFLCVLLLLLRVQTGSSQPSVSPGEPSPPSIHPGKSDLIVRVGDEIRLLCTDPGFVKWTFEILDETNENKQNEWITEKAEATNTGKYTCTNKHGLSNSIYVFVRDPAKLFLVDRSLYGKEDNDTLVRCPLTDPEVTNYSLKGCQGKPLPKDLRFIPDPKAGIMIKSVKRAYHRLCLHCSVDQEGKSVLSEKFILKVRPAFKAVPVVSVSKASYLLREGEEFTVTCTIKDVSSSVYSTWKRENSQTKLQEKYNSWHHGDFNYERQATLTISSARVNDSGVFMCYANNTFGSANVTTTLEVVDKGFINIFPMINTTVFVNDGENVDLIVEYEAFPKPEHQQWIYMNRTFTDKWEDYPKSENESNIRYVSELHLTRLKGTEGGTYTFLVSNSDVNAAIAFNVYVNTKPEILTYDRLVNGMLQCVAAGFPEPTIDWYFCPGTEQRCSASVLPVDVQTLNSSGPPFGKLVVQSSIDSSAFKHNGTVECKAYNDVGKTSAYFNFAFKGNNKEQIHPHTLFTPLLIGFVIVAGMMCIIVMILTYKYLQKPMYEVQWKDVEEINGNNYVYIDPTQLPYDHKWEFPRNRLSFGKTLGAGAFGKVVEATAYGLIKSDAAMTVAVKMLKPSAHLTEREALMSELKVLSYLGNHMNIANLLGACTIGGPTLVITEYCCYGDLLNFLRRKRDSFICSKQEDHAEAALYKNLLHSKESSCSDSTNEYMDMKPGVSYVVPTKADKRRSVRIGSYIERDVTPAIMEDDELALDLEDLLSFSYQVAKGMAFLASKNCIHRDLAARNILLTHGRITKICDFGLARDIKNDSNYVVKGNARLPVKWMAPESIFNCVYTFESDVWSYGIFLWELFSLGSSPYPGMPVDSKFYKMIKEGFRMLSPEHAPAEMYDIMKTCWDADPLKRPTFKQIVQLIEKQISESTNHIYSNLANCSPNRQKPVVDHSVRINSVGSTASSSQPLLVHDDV
Chain of Ephrin type-A receptor 2 (Homo sapiens) (P29317 whole entry): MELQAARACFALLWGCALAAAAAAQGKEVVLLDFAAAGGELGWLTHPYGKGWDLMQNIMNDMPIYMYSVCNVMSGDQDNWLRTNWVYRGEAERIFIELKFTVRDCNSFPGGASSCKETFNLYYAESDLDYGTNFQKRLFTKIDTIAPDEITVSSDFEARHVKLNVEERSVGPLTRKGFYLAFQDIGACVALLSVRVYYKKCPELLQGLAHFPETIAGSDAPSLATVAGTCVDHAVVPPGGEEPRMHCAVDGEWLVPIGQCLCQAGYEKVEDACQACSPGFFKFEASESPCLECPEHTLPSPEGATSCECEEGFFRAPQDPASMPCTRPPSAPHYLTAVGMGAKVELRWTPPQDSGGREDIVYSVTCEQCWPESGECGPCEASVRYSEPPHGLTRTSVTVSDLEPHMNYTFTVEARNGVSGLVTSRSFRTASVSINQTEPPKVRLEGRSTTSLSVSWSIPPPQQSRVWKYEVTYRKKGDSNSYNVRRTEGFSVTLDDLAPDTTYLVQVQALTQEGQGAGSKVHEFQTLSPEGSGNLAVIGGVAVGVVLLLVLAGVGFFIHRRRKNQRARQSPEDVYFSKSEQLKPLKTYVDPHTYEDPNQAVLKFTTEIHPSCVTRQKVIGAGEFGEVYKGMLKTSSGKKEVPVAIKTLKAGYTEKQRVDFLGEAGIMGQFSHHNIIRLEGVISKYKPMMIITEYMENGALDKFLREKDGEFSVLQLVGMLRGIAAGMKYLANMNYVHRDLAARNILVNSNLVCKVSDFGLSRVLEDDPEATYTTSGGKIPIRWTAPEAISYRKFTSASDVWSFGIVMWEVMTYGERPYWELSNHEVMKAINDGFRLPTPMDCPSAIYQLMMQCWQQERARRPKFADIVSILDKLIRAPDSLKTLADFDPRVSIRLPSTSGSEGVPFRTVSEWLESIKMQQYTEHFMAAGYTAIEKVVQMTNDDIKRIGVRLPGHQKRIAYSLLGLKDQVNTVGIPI
Chain of Mast/stem cell growth factor receptor Kit (Homo sapiens), P10721 [A829P] (P10721 whole entry A829P): as the sequence (P10721 whole entry V559D/V654A) above, with D559V, A654V, A829P counted along it
Chain of Mast/stem cell growth factor receptor Kit (Homo sapiens), P10721 [D816H] (P10721 whole entry D816H): as the sequence (P10721 whole entry V559D/V654A) above, with D559V, A654V, D816H counted along it
Chain of Histone acetyltransferase KAT2A (Homo sapiens) (Q92830 2-837 limits assumed): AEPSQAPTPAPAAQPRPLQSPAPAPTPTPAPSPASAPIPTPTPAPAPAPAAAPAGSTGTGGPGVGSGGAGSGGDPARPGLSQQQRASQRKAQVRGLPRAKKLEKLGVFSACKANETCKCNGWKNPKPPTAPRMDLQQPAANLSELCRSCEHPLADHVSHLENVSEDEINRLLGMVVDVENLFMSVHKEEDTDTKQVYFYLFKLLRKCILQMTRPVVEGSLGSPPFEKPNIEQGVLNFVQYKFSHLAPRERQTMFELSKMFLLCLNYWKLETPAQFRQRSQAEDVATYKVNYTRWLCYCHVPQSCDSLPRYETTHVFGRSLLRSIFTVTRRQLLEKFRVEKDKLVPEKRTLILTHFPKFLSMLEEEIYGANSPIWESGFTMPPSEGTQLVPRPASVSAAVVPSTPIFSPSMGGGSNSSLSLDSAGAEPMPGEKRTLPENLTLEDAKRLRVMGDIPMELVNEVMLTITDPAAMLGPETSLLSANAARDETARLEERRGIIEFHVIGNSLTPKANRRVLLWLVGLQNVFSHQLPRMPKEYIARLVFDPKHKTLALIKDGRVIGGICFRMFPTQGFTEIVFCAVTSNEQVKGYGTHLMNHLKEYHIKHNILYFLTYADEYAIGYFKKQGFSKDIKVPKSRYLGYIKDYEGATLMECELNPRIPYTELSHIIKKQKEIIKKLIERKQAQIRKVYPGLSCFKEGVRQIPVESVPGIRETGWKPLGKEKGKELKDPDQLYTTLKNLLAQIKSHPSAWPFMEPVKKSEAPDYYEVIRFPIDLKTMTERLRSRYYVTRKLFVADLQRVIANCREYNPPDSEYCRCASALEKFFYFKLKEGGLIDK

`CN(C)C/C=C/C(=O)Nc1ccc(C(=O)N2CCCC(Nc3ncc(Cl)c(-c4c[nH]c5ccccc45)n3)C2)cc1` (stereo unspecified) was tested, and the % of control [1] was 93%.
Compound `Cc1cc(F)c(C(=O)Nc2cccc(-c3nncn3C(C)C)n2)cc1-n1cnc(C2CC2)c1` has a % of control [2] of 91%.
`CC(=O)c1cc(-c2ccccc2OCC2CC2)c2ncccn12` was tested, and the % of control [3] was 92%.
With `COc1cc(N(C)c2ccnc3ccc(C(F)(F)F)cc23)cc(OC)c1OC` the % binding [4] was 68%.
Compound `Nc1cnc(N2CCc3cc(S(=O)(=O)Nc4c(F)cc(Cl)cc4F)cc(N4CCCC4=O)c32)nc1` [TP-020n] has a % of control [5] of 80%.
`CN(C)CCCOc1ccc(-c2cc(NCCCn3cccn3)nc(S(C)(=O)=O)n2)cc1` showed a dTM [6] of under 2 K.
With `CN(C)CCOc1ccc(-c2nc(-c3ccncc3)c(-c3ccc4c(c3)CC/C4=N\O)[nH]2)cc1` the % of control [7] was 86%, the % of control [8] was 100% and the % of control [9] was 79%. The % of control [10] was 58%, the % of control [11] was 93% and the % of control [12] was 93%. The % of control [13] was 65% and the % of control [14] was 75%.
For `O[C@H]1CC[C@H](Nc2ncc3nc(Nc4c(F)cc(F)cc4F)n([C@H]4CCOC4)c3n2)CC1`, the % of control [15] was 99%.
With `CNC(=O)Nc1ccc(-c2nc(N3CC4CCC(C3)O4)c3cnn(C4CCC5(CC4)OCCO5)c3n2)cc1` the % of control [16] was 100%.

From ChEMBL document CHEMBL5465560, “Selectivity Literature for EUbOPEN Chemogenomic Library” (2024)
